Measured values as given in US11401279B2, “Pyrido[3,2-d]pyrimidine compounds as immunomodulators” (Incyte Corporation, priority 2019, dated 2022).
Read-outs that look alike come from different tables or passages of the source.

What was measured:
[1] = biological target: PD-1/PD-L1 (Homo sapiens (Human), UniProt Q9NZQ7); test: Homogeneous Time-Resolved Fluorescence (HTRF) PD-1/PD-L1 binding assay; conditions: recombinant human PD-1 and PD-L1
Procedure: The assays were conducted in a standard black 384-well polystyrene plate with a final volume of 20 μL. Inhibitors were first serially diluted in DMSO and then added to the plate wells before the addition of other reaction components. The final concentration of DMSO in the assay was 1%. The assays were carried out at 25° C. in the PBS buffer (pH 7.4) with 0.05% Tween-20 and 0.1% BSA. Recombinant human PD-L1 protein (19-238) with a His-tag at the C-terminus was purchased from AcroBiosystems (PD1-H5229). Recombinant human PD-1 protein (25-167) with Fc tag at the C-terminus was also purchased from AcroBiosystems (PD1-H5257). PD-L1 and PD-1 proteins were diluted in the assay buffer and 10 μL was added to the plate well. Plates were centrifuged and proteins were preincubated with inhibitors for 40 minutes. The incubation was followed by the addition of 10 μL of HTRF detection buffer supplemented with Europium cryptate-labeled anti-human IgG (PerkinElmer-AD0212) specific for Fc and anti-His antibody conjugated to SureLight®-Allophycocyanin (APC, PerkinElmer-AD0059H). After centrifugation, the plate was incubated at 25° C. for 60 min. before reading on a PHERAstar FS plate reader (665 nm/620 nm ratio). Final concentrations in the assay were—3 nM PD1, 10 nM PD-L1, 1 nM europium anti-human IgG and 20 nM anti-His-Allophycocyanin. IC50 determination was performed by fitting the curve of percent control activity versus the log of the inhibitor concentration using the GraphPad Prism 5.0 software.

[2] = test system: U2OS/PD-L1 cells and Jurkat-PD-1-SHP cells; test: Src homology region 2 domain-containing phosphatase (SHP) assay; assay type: cell-based; conditions: PathHunter chemiluminescence, 2 hours
Procedure: U2OS/PD-L1 cells (DiscoveRx Corporation) were maintained in McCoy's 5A medium with addition of 10% FBS, 0.25 μg/mL Puromycin. After removing the culture media, the cell medium was replaced with assay medium (RPMI1640 medium with 1% FBS). The U2OS/PD-L1 cells were then added in 384-well black clear bottom assay plate (CELLCOAT® Tissue Culture Plates, Greiner Bio-One) at 5000 cells per well in 20 μL assay medium. Test compounds were prepared by serial dilution in DMSO and 125 nL compound were first transferred to the 384 REMP plate well (Thermofisher) by ECHO liquid handler (Labcyte) followed with addition of 27.5 μL assay medium. 5 µL/well compounds in the assay medium were transferred to the cell plate with 0.05% DMSO in the final assay at 0.25 μM. Jurkat-PD-1-SHP cells (DiscoveRx Corporation) were cultured in RPMI1640 medium supplemented with 10% FBS, 250 μg/mL Hygromycin B, 500 μg/mL G418. After the replacement of culture media with assay medium, 5,000 Jurkat-PD-1-SHP cells in 20 μL were dispensed into each well. The assay plate was incubated at 37° C., 5% CO2 for 2 hours before 2.5 μL PathHunter reagent 1 (DiscoveRx Corporation) were added to each well. The assay plate was shaken for 1 min at 350 rpm in the dark followed with addition of 10 μL PathHunter reagent 2 (DiscoveRx Corporation). Chemiluminescent signal was recorded with TopCount reader (Perkin Elmer) after incubation at room temperature for 1 hour. Wells with DMSO were served as the positive controls and wells containing no cells were used as negative controls. IC50 determination was performed by fitting the curve of percentage of control activity versus the log of the compound concentration using the GraphPad Prism 6.0 software.

[3] = test system: PD-L1 aAPC/CHO-K1 cells and Jurkat-PD-1-NFAT effector cells; test: Nuclear factor of activated T-cells (NFAT) assay; assay type: cell-based; conditions: luminescence, 24 hours
Procedure: PD-L1 aAPC/CHO-Klcells (Promega) were maintained in F-12 medium with addition of 10% FBS, 200 μg/mL Hygromycin B, 250 μg/mL Geneticin (G418). Jurkat-PD-1-NFAT effector cells (Promega) were cultured in RPMI 1640 medium supplemented with 10% FBS, 100 μg/mL Hygromycin B, 500 μg/mL G418. The culture media of PD-L1 aAPC/CHO-K1 cells were first replaced with assay medium (RPMI1640 medium with 1% FBS). The PD-L1 aAPC/CHO-Klcells were then added in a white 384-well white clear bottom assay plate (CELLCOAT® Tissue Culture Plates, Greiner Bio-One) at 8000 per well in 10 μL assay medium. Test compounds were prepared by serial dilution in DMSO and 0.8 μL test compounds in DMSO were first transferred to the 384 REMP plate well (Thermofisher) by PlateMate Plus (Thermofisher) followed with addition of 50 μL plating medium. 5 μL compounds in the assay medium were transferred to the cells with 0.4% DMSO in the final assay at 2 μM. After removing the culture media, 10,000 Jurkat-PD-1-NFAT effector cells in 5 μL assay medium was dispensed into each well. The assay plate was incubated at 37° C., 5% CO2 for 24 hours. After the assay plate was equilibrated to room temp for 15 minutes, 20 μL/well of Bio-Glo™ reagent (Promega) were added. After 8 minutes incubation at room temperature, luminescence was read at with Pherastar microplate reader (BMG Labtech). The fold of induction (FOI) was calculated based on the ratio of luminescence normalized to the DMSO wells within each assay plate. The maximum percentage of induction was reported based on the ratio between the highest FOI of each compound and the maximum FOI of control compound within each assay plate. Wells with DMSO were served as the negative controls and wells containing control compound with the highest FOI were used as positive controls. EC50 determination was performed by fitting the curve of percent control activity versus the log of the compound concentration using the GraphPad Prism 6.0 software.

[4] = biological target: PD-L1 (Homo sapiens (Human), UniProt Q9NZQ7); test: PD-L1 whole blood internalization assay; assay type: cell-based; conditions: PD-L1 internalization in human whole blood, CD14+ cells, interferon γ, 24 hour
Procedure: To determine PD-L1 internalization in human whole blood, normal human blood (Biological Specialty Corp, Colmar. Pa.) was incubated in the presence or absence of a concentration range of test compounds and 1 ng/mL human interferon γ (R&D Systems Inc. Minn. […] Blood was then stained with PD-L1 (MIH1, eBioscience; or BD Biosciences San Jose, Calif.), CD14 (Life Technologies, Carlsbad, Calif.) for 30 minutes in the dark at room temperature. Whole Blood/red cells were lysed/fixed (lysis buffer BD Biosciences) for 5 minutes at 37° C. in the dark and then centrifuged at 1600 RPM for 5 minutes. Cells were resuspended in Stain Buffer (BD Bioscience, San Jose, Calif.) and transferred into 96 well round bottom plates (Corning). Cells were gated on CD14+(BD Biosciences) and PD-L1 expression determined by mean fluorescence intensity (MFI) (BD LSRFortessa™ X-20). IC50 determination was performed by fitting the curve of compound percent inhibition versus the log of the compound concentration using the GraphPad Prism 7.0 software.

[5] = In vivo pharmacokinetics in rats; parameters: species or system Sprague Dawley rats; conditions: rat, cassette dosing; for Vd: read-out: Vss; for Cmax / AUC(0-inf) / F: 3.0 mg/kg PO
Procedure: For in vivo pharmacokinetic experiments, test compounds were administered to male Sprague Dawley rats or male and female Cynomolgus monkeys intravenously or via oral gavage. For intravenous (IV) dosing, test compounds were dosed at 0.5 to 1 mg/kg using a formulation of 10% dimethylacetamide (DMAC) in acidified saline via IV bolus for rat and 5 min or 10 min IV infusion for monkey. For oral (PO) dosing, test compounds were dosed at 1.0 to 3.0 mg/kg using 5% DMAC in 0.5% methylcellulose in citrate buffer (pH 3.5). Blood samples were collected at predose and various time points up to 24 hours postdose. All blood samples were collected using EDTA as the anticoagulant and centrifuged to obtain plasma samples. The plasma concentrations of test compounds were determined by LC-MS methods. The measured plasma concentrations were used to calculate PK parameters by standard noncompartmental methods using Phoenix® WinNonlin software program (version 7.0, Pharsight Corporation).
In rats and monkeys, cassette dosing of test compounds were conducted to obtain preliminary PK parameters.

[6] = male, Sprague-Dawley, plasma, 1.0 mg/kg IV
[7] = male, Sprague-Dawley, plasma, read-out: AUC0-inf

PD-L1, sequence (Q9NZQ7 19-290): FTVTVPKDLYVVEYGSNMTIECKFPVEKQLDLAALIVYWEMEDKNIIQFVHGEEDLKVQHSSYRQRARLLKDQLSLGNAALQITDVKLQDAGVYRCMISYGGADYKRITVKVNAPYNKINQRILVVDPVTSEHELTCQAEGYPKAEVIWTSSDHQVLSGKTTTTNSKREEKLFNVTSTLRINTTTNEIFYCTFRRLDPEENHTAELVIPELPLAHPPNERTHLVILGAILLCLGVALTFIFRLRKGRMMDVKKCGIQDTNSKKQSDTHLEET
PD-1/PD-L1, sequence (Q9NZQ7 19-238): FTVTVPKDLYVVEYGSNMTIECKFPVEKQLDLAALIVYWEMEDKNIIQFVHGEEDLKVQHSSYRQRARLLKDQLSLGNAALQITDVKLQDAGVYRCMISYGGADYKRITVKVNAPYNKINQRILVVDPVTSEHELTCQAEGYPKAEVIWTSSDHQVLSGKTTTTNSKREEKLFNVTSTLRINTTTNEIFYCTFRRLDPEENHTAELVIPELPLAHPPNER

SMILES	IC50 [1]	IC50 ([2]; Homo sapiens, U2OS)	IC50 [4]	clearance [5, 6]	half-life [5, 6]	Vd [5, 6]	Cmax ([5]; male, Sprague-Dawley, plasma)	AUC(0-inf) [5, 7]	F [5]	IC50 [2]	Cl ([5]; 1.0 mg/kg IV)	Vss ([5]; 1.0 mg/kg IV)	t1/2 ([5]; 1.0 mg/kg IV)	AUC(0-inf) [5]	Cmax [5]	EC50 ([3]; Cricetulus griseus, CHO-K1)	EC50 [3]
CC(C)N1CCc2c(nc(C(=O)Nc3cccc(-c4cccc(NC(=O)c5nc6c(n5C)CCN(CC57CCC(C(=O)O)(CC5)C7)C6)c4Cl)c3Cl)n2C)C1 [Example 177, reference compound]	1.5 nM	5.7 nM	185 nM	–	–	–	–	–	–	–	–	–	–	–	–	31 nM	–
Cn1c(C(=O)Nc2cccc(-c3cccc(NC(=O)c4nc5c(n4C)CCN(C4CCC4)C5)c3Cl)c2Cl)nc2c1CCN(CC13CCC(C(=O)O)(CC1)C3)C2 [Example 178, reference compound]	1.9 nM	13 nM	587 nM	–	–	–	–	–	–	–	–	–	–	–	–	82 nM	–
C[C@H](O)CN1CCc2c(nc(C(=O)Nc3cccc(-c4cccc(NC(=O)c5nc6c(n5C)CCN(CC57CCC(C(=O)O)(CC5)C7)C6)c4Cl)c3Cl)n2C)C1 [Example 181, reference compound]	1.6 nM	6.1 nM	161 nM	–	–	–	–	–	–	–	–	–	–	–	–	41 nM	–
Cn1c(C(=O)Nc2cccc(-c3cccc(NC(=O)c4nc5c(n4C)CCN(C4CCC(O)CC4)C5)c3Cl)c2Cl)nc2c1CCN(CC13CCC(C(=O)O)(CC1)C3)C2 (centres unmarked) [Example 183, reference compound]	1.8 nM	5.6 nM	49 nM	–	–	–	–	–	–	–	–	–	–	–	–	18 nM	–

Continued by falling IC50 [1], values first:

IC50 [1]	IC50 ([2]; Homo sapiens, U2OS)	IC50 [4]	clearance [5, 6]	half-life [5, 6]	Vd [5, 6]	Cmax ([5]; male, Sprague-Dawley, plasma)	AUC(0-inf) [5, 7]	F [5]	IC50 [2]	Cl ([5]; 1.0 mg/kg IV)	Vss ([5]; 1.0 mg/kg IV)	t1/2 ([5]; 1.0 mg/kg IV)	AUC(0-inf) [5]	Cmax [5]	SMILES	EC50 ([3]; Cricetulus griseus, CHO-K1)	EC50 [3]
8.3 nM	6.9 nM	97 nM	16.5 mL/min/kg	208 min	2.45 L/kg	234 nM	1.2 µM·h	28%	–	–	–	–	–	–	CN1CCc2c(nc(C(=O)Nc3cccc(-c4cccc(NC(=O)c5nc6c(n5C)CCN(CC57CCC(C(=O)O)(CC5)C7)C6)c4Cl)c3Cl)n2C)C1 [Example 84]	47 nM	–
2.4 nM	4.9 nM	149 nM	19 mL/min/kg	114 min	1.96 L/kg	398 nM	1.5 µM·h	39%	–	–	–	–	–	–	Cc1c(NC(=O)c2nc3c(n2C)CCN(CC24CCC(C(=O)O)(CC2)C4)C3)cccc1-c1cccc(NC(=O)c2nc3c(n2C)CCN(C)C3)c1Cl [Example 102]	76 nM	–
2.3 nM	4.9 nM	62 nM	63.7 mL/min/kg	–	4.45 L/kg	57 nM	0.398 µM·h	8%	–	–	–	–	–	–	Cc1c(-c2nc3cc(CN4CC[C@@H](O)C4)cc(C#N)c3o2)cccc1-c1cccc(NC(=O)c2nc3c(n2C)CCN(CCC2CCC(C(=O)O)CC2)C3)c1Cl (some centres unmarked) [Example 265]	15 nM	–
2.3 nM	7.8 nM	121 nM	–	197 min	2.22 L/kg	108 nM	0.687 µM·h	12%	–	–	–	–	–	–	Cc1c(-c2nc3cc(CN4CC[C@@H](O)C4)cc(C#N)c3o2)cccc1-c1cccc(NC(=O)c2nc3c(n2C)CCN(CC24CCC(C(=O)O)(CC2)C4)C3)c1Cl [Example 267]	39 nM	–
1.7 nM	4.4 nM	92 nM	–	–	–	–	–	–	–	–	–	–	–	–	C[C@@H](O)CN1CCc2c(nc(C(=O)Nc3cccc(-c4cccc(NC(=O)c5nc6c(n5C)CCN(CC57CCC(C(=O)O)(CC5)C7)C6)c4Cl)c3Cl)n2C)C1 [Example 182, reference compound]	30 nM	–
1.5 nM	–	166 nM	–	–	–	–	–	38%	4.4 nM	1.57 L/h/kg	2.48 L/kg	2.21 h	0.956 µM·h	231 nM	Cn1c(C(=O)Nc2cccc(-c3cccc(NC(=O)c4nc5c(n4C)CCN(CC46CCC(C(=O)O)(CC4)C6)C5)c3Cl)c2Cl)nc2c1CCN(CCO)C2 [Example 180]	–	30 nM
